pIC50 data for 23 compounds are collected here from patent publication US8153809B2, “Dihydropyridone ureas as P2X7 modulators” (Roche Palo Alto LLC, priority 2008, dated 2012).

As a reminder, the pIC50 is the IC50 on a negative log10 scale, so that one unit is a factor of ten. Read a high pIC50 as a low IC50.

Each structure is given as a SMILES string.

The assay has as its target T1, P2X7 (UniProt Q99572).
T1 sequence (Q99572 1-595): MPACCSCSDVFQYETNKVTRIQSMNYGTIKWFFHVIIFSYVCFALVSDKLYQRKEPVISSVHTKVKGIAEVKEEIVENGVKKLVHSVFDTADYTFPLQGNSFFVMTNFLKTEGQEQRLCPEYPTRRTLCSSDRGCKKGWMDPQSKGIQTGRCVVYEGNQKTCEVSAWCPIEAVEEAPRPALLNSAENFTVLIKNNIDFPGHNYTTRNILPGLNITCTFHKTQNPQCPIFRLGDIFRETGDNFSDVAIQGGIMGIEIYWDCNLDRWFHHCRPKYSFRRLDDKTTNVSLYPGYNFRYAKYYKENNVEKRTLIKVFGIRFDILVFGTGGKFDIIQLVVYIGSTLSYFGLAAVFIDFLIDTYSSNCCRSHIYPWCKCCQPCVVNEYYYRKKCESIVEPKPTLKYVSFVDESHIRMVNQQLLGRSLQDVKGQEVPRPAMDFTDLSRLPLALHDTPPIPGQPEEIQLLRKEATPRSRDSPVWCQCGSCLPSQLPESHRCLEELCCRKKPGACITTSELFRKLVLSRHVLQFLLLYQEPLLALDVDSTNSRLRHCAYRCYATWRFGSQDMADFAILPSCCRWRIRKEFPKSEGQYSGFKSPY
The assay can be described thus: pIC50 values for P2X7 (Table 1). The format is cell-based. As to the method: Intracellular Calcium Flux (FLIPR) Assay
Compound and Reagent Preparation
Stock solutions of compounds were prepared from powders as a 10 mM DMSO stock solution. These solutions were stored at RT during the two week period of these experiments to prevent freeze-thaw of the DMSO stocks. The DMSO stocks were added to the appropriate assay buffer at a concentration of 10 μM, and then diluted serially to the final concentrations that were tested. […] The aqueous solutions of compounds as well as ATP (Sigma A7699) and BzATP (Sigma B6396) were prepared fresh for each day of experiment.
1321N1 cells stably expressing the full length human P2X7 gene (1321N1-hP2X7) and HEK293 cells stably expressing the full length rat P2X7 gene (HEK293-rP2X7) were obtained from the Roche Cell Culture Facility. 1321N1-hP2X7 cells were grown in Dulbecco's Modified Eagle's Medium (DMEM) high glucose supplemented with 10% FBS and 250 μg/mL G418. HEK293-rP2X7 cells were grown in DMEM/F-12 supplemented with 10% FBS, 1 mM CaCl2, 2 mM MgCl2, 2 mM L-Glutamine and 500 μg/ml G418. Cells were split such that they never became >70% confluent.
Intracellular Calcium Flux (FLIPR)
On the day prior to the experiment, 1321N1-hP2X7 or HEK293-rP2X7 cells were released into suspension with calcium-free PBS+Versene and washed by centrifugation with calcium-free PBS to remove the Versene.
On the day of the experiment, plates were washed with FLIPR buffer (calcium- and magnesium-free Hank's Balanced Salt Solution (HBSS) supplemented with 10 mM Hepes, 2.5 mM probenecid and 2 mM calcium chloride) using a BIO-TEK 96 channel plate washer and incubated with […] fluo-3 dye at 37° C. for one hr. The dye was then removed by plate washing and the cells were allowed to equilibrate for 20 min at room temperature with antagonist or vehicle (FLIPR buffer). Agonist (100 μM BzATP final concentration for hP2X7; 5 μM BzATP final concentration or rP2X7) was added online with the FLIPR and fluorescence measurements made at 1 sec intervals for 60 sec followed by 3 sec intervals for a further 4 min (5 min total). A final addition of 5 μM ionomycin was made and the maximal BzATP-evoked fluorescence normalized to the maximal ionomycin-evoked fluorescence.
In the case of `O=C1C=CN(C(=O)Nc2cc(O)c(Cl)cc2Br)[C@H](c2ccc(F)cc2)C1` [Compound 24, (S)-2-(4-Fluoro-phenyl)-4-oxo-3,4-dihydro-2H-pyridine-1-carboxylic acid (2-bromo-4-chloro-5-hydroxy-phenyl)-amide], the pIC50 stood at 6.71.

`CNC(=O)COc1cc(NC(=O)N2C=CC(=O)C[C@H]2c2ccc(F)cc2)c(Br)cc1Cl` [Compound 25, (S)-2-(4-Fluoro-phenyl)-4-oxo-3,4-dihydro-2H-pyridine-1-carboxylic acid (2-bromo-4-chloro-5-methylcarbamoylmethoxy-phenyl)-amide] returned a pIC50 of 6.785.

`COc1cc(C)c(NC(=O)N2C=CC(=O)C[C@H]2c2ccc(F)cc2)cc1OC` [Compound 26, (S)-2-(4-Fluoro-phenyl)-4-oxo-3,4-dihydro-2H-pyridine-1-carboxylic acid (4,5-dimethoxy-2-methyl-phenyl)-amide] showed a pIC50 of 7.93.

`COC(=O)c1cc(NC(=O)N2C=CC(=O)C[C@H]2c2ccc(F)cc2)c(Br)cc1Cl` [Compound 27, 4-Bromo-2-chloro-5-{[(S)-2-(4-fluoro-phenyl)-4-oxo-3,4-dihydro-2H-pyridine-1-carbonyl]-amino}-benzoic acid methyl ester]: the pIC50 was determined as 7.26.

With `COc1cc(NC(=O)N2C=CC(=O)C[C@H]2c2ccc(F)cc2)c(Br)cc1S(C)(=O)=O` [Compound 28, (S)-2-(4-Fluoro-phenyl)-4-oxo-3,4-dihydro-2H-pyridine-1-carboxylic acid (2-bromo-4-methanesulfonyl-5-methoxy-phenyl)-amide], the pIC50 was determined as 6.435.

For the compound `COc1cc(NC(=O)N2C=CC(=O)C[C@H]2c2cccc(F)c2)c(Br)cc1C` [Compound 29, (S)-2-(3-Fluoro-phenyl)-4-oxo-3,4-dihydro-2H-pyridine-1-carboxylic acid (2-bromo-5-methoxy-4-methyl-phenyl)-amide], the pIC50 amounted to 7.93.

In turn, `COC(=O)COc1cc(NC(=O)N2C=CC(=O)C[C@H]2c2ccc(F)cc2)c(Br)cc1Cl` [Compound 30, (4-Bromo-2-chloro-5-{[(S)-2-(4-fluoro-phenyl)-4-oxo-3,4-dihydro-2H-pyridine-1-carbonyl]-amino}-phenoxy)-acetic acid methyl ester] came in with a pIC50 of 6.7.

In turn, `COC(=O)COc1cc(N(CC(=O)OC)C(=O)N2C=CC(=O)C[C@H]2c2ccc(F)cc2)c(Br)cc1Cl` [Compound 31, (4-Bromo-2-chloro-5-{[(S)-2-(4-fluoro-phenyl)-4-oxo-3,4-dihydro-2H-pyridine-1-carbonyl]-methoxycarbonylmethyl-amino}-phenoxy)-acetic acid methyl ester] had a pIC50 of 5.27.

For the compound `O=C(O)COc1cc(NC(=O)N2C=CC(=O)C[C@H]2c2ccc(F)cc2)c(Br)cc1Cl` [Compound 32, (4-Bromo-2-chloro-5-{[(S)-2-(4-fluoro-phenyl)-4-oxo-3,4-dihydro-2H-pyridine-1-carbonyl]-amino}-phenoxy)-acetic acid], the pIC50 is recorded as 5.365.

Compound `COCCOc1cc(NC(=O)N2C=CC(=O)C[C@H]2c2ccc(F)cc2)c(Br)cc1Cl` [Compound 33, (S)-2-(4-Fluoro-phenyl)-4-oxo-3,4-dihydro-2H-pyridine-1-carboxylic acid [2-bromo-4-chloro-5-(2-methoxy-ethoxy)-phenyl]-amide] showed a pIC50 of 7.27.

`COc1ccc(NC(=O)N2C=CC(=O)C[C@H]2c2ccc(F)cc2)cc1OC` [Compound 34, (S)-2-(4-Fluoro-phenyl)-4-oxo-3,4-dihydro-2H-pyridine-1-carboxylic acid (3,4-dimethoxy-phenyl)-amide] showed a pIC50 of 7.2425.

`COc1cc(NC(=O)N2C=CC(=O)C[C@H]2c2ccc(F)cc2)c(F)cc1Cl` [Compound 35, (S)-2-(4-Fluoro-phenyl)-4-oxo-3,4-dihydro-2H-pyridine-1-carboxylic acid (4-chloro-2-fluoro-5-methoxy-phenyl)-amide]: the pIC50 stood at 7.195.

The compound `Cc1n[nH]c2cc(NC(=O)N3C=CC(=O)C[C@H]3c3ccc(F)cc3)c(Br)cc12` [Compound 36, (S)-2-(4-Fluoro-phenyl)-4-oxo-3,4-dihydro-2H-pyridine-1-carboxylic acid (5-bromo-3-methyl-1H-indazol-6-yl)-amide] displayed a pIC50 of 6.905.

`O=C1C=CN(C(=O)Nc2cc3c(cc2Br)OCO3)C(c2ccc(F)cc2)C1` (centres unmarked) [Compound 37] displayed a pIC50 of 7.457.

Compound `COC(=O)c1cc(Br)c(NC(=O)N2C=CC(=O)C[C@H]2c2ccc(F)cc2)cc1OC` [Compound 38, 5-Bromo-4-{[(S)-2-(4-fluoro-phenyl)-4-oxo-3,4-dihydro-2H-pyridine-1-carbonyl]-amino}-2-methoxy-benzoic acid methyl ester] had a pIC50 of 6.89.

Turning to `COC(=O)c1cc(Br)c(NC(=O)N2C=CC(=O)C[C@H]2c2cccc(F)c2)cc1OC` [Compound 39, 5-Bromo-4-{[(S)-2-(3-fluoro-phenyl)-4-oxo-3,4-dihydro-2H-pyridine-1-carbonyl]-amino}-2-methoxy-benzoic acid methyl ester], the negative-log IC50 (pIC50) is 7.06.

As to `O=C1C=CN(C(=O)Nc2cc(OCCO)c(Cl)cc2Br)[C@H](c2ccc(F)cc2)C1` [Compound 40, (S)-2-(4-Fluoro-phenyl)-4-oxo-3,4-dihydro-2H-pyridine-1-carboxylic acid [2-bromo-4-chloro-5-(2-hydroxy-ethoxy)-phenyl]-amide], the pIC50 was 7.607.

As for `COc1cc(NC(=O)N2C=CC(=O)CC2c2ccccc2F)c(Br)cc1C` (centres unmarked) [Compound 41, 2-(2-Fluoro-phenyl)-4-oxo-3,4-dihydro-2H-pyridine-1-carboxylic acid (2-bromo-5-methoxy-4-methyl-phenyl)-amide], the pIC50 was 6.43.

Regarding `COc1cc(NC(=O)N2C=CC(=O)C[C@H]2c2ccc(F)cc2)c(Br)cc1OC(F)F` [Compound 42, (S)-2-(4-Fluoro-phenyl)-4-oxo-3,4-dihydro-2H-pyridine-1-carboxylic acid (2-bromo-4-difluoromethoxy-5-methoxy-phenyl)-amide], the pIC50 is on record as 7.503.

In turn, `COc1cc(NC(=O)N2C=CC(=O)CC2c2ccc(F)c(F)c2)c(Br)cc1C` (centres unmarked) [Compound 44, 2-(3,4-Difluoro-phenyl)-4-oxo-3,4-dihydro-2H-pyridine-1-carboxylic acid (2-bromo-5-methoxy-4-methyl-phenyl)-amide] yielded a pIC50 of 7.383.

In the case of `COc1cc(NC(=O)N2C=CC(=O)C[C@H]2c2ccc(F)cc2)ccc1C` [Compound 45, (S)-2-(4-Fluoro-phenyl)-4-oxo-3,4-dihydro-2H-pyridine-1-carboxylic acid (3-methoxy-4-methyl-phenyl)-amide], the pIC50 was determined as 6.737.

Regarding `COc1cc(NC(=O)N2C=CC(=O)C[C@H]2c2cccc(F)c2)c(Br)cc1OC(F)F` [Compound 46, (S)-2-(3-Fluoro-phenyl)-4-oxo-3,4-dihydro-2H-pyridine-1-carboxylic acid (2-bromo-4-difluoromethoxy-5-methoxy-phenyl)-amide], the pIC50 was determined as 7.293.

The compound `Cc1cc(Br)c(NC(=O)N2C=CC(=O)C[C@H]2c2ccc(F)cc2)cc1C#N` [Compound 48, (S)-2-(4-Fluoro-phenyl)-4-oxo-3,4-dihydro-2H-pyridine-1-carboxylic acid (2-bromo-5-cyano-4-methyl-phenyl)-amide] registered a pIC50 of 6.84.
